# According to patent US20220274979A1 (Bayer Pharma Aktiengesellschaft, priority 2018, published 2022):
# Molecular target: T1, Epidermal Growth Factor Receptor (EGFR) (Homo sapiens, UniProt P00533)
# T1 construct: purchased Sigma-Aldrich E3641
# Assay: EGFR kinase assay (TR-FRET)
# Type: biochemical
# Conditions: 10 μM ATP; read-out: EGFR kinase inhibition IC50
# Source text: EGFR inhibitory activity of compounds of the present invention was quantified employing the TR-FRET based EGFR assay as described in the following paragraphs.
# Epidermal Growth Factor Receptor (EGFR) affinity purified from human carcinoma A431 cells (Sigma-Aldrich, # E3641) was used as kinase. As substrate for the kinase reaction the biotinylated peptide biotin-Ahx-[…] (SEQ ID NO: 8, C-terminus in amid form) was used which can be purchased e.g. form the company Biosyntan GmbH (Berlin-Buch, Germany).
# For the assay 50 nL of a 100 fold concentrated solution of the test compound in DMSO was pipetted into a black low volume 384 well microtiter plate (Greiner Bio-One, Frickenhausen, Germany), 2 μL of a solution of EGFR in aqueous assay buffer [50 mM Hepes/HCl pH 7.0, 1 mM MgCl2, 5 mM MnCl2, 0.5 mM activated sodium ortho-vanadate, 0.005% (v/v) Tween-20]were added and the mixture was incubated for […] at 22° C. to allow pre-binding of the test compounds to the enzyme before the start of the kinase reaction. Then the kinase reaction was started by the addition of 3 μL of a solution of adenosine-tri-phosphate (ATP, 16.7 μM=>final conc. in the 5 μL assay volume is 10 μM) and substrate (1.67 μM =>final conc. in the 5 μL assay volume is 1μM) in assay buffer and the resulting mixture was incubated for a reaction time of […] at 22° C. The concentration of EGFR was adjusted depending of the activity of the enzyme lot and was chosen appropriate to have the assay in the linear range, typical concentration were about 3 U/ml. The reaction was stopped by the addition of 5 μl of a solution of HTRF detection reagents (0.1 μM streptavidine-XL665 [Cis Biointernational]and 1 nM PT66-Tb-Cryptate, an terbium-cryptate labelled anti-phospho-tyrosine antibody from Cis Biointernational [instead of the PT66-Tb-cryptate PT66-Eu-Chelate from Perkin Elmer can also be used]) in an aqueous EDTA-solution (80 mM EDTA, 0.2% (w/v) bovine serum albumin in 50 mM HEPES pH 7.5).
# The resulting mixture was incubated 1 h at 22° C. to allow the binding of the biotinylated phosphorylated peptide to the streptavidine-XL665 and the PT66-Eu-Chelate. Subsequently the amount of phosphorylated substrate was evaluated by measurement of the resonance energy transfer from the PT66-Tb-Cryptate to the streptavidine-XL665. Therefore, the fluorescence emissions at 620 nm and 665 nm after excitation at 337 nm were measured in a HTRF reader, e.g. a Pherastar (BMG Labtechnologies, Offenburg, Germany) or a Viewlux (Perkin-Elmer). The ratio of the emissions at 665 nm and at […] was taken as the measure for the amount of phosphorylated substrate.
# T1 sequence (P00533 25-1210): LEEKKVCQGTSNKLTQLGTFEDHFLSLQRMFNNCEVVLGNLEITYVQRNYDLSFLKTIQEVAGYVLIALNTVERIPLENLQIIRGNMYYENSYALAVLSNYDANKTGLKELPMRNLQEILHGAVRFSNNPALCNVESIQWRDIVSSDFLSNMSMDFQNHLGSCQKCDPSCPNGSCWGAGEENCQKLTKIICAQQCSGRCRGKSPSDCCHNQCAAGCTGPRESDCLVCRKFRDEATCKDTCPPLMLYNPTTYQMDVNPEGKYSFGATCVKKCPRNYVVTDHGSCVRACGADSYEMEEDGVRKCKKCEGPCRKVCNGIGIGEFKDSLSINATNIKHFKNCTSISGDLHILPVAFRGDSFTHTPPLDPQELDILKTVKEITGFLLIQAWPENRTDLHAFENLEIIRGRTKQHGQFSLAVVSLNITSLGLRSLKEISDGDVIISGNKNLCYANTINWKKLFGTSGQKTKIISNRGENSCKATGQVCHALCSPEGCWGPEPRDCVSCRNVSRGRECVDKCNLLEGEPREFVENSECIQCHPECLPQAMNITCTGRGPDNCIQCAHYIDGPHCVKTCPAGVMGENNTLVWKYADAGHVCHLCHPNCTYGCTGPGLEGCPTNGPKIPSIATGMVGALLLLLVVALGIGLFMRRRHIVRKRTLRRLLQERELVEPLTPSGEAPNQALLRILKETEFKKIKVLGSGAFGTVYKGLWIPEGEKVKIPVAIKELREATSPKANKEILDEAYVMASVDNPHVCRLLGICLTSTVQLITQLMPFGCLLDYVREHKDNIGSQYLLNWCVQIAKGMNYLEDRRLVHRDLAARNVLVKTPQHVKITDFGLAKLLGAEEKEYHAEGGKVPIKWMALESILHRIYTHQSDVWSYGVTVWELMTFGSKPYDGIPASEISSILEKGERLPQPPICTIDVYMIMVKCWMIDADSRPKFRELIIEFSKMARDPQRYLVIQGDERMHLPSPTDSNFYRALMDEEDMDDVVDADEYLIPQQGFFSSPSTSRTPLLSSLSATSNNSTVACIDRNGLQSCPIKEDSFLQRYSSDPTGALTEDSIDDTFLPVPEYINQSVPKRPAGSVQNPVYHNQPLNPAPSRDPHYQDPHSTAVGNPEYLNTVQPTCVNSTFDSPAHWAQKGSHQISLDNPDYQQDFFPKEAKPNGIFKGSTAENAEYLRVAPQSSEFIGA
row,Compound,IC50
1,"CC(=O)N[C@@H]1CCN(c2cc3c(NC(C)c4ccc(-c5ccccc5CN(C)C)s4)nc(C)nc3cn2)C1 (single isomer, unassigned) [Example 79]",> 20 µM
2,"CC(=O)N[C@@H]1CCN(c2cc3c(NC(C)c4ccc(-c5ccccc5CN(C)C)s4)nc(C)nc3cn2)C1 (single isomer, unassigned) [Example 80]",> 20 µM
3,"CC(=O)N[C@H]1CCN(c2cc3c(NC(C)c4ccc(-c5ccccc5CN(C)C)s4)nc(C)nc3cn2)C1 (single isomer, unassigned) [Example 81]",> 20 µM
4,"CC(=O)N[C@H]1CCN(c2cc3c(NC(C)c4ccc(-c5ccccc5CN(C)C)s4)nc(C)nc3cn2)C1 (single isomer, unassigned) [Example 82]",> 20 µM
